# Measurements: PMC6015499 (Journal of medicinal chemistry, 2017)
# Read-outs that look alike come from different tables or passages of the source.
# Legend:
# [1] = In vivo pharmacokinetics and tissue distribution in mice; design: species or system male CD-1 mice; details: mouse, single i.p. dose 1 mg/kg
# PAMPA permeability = format: in vitro ADME
# [2] = ALT level in mouse serum during pharmacokinetics study; format: in vivo; details: mouse model
# Huh7.5.1 cells = experiment: ATPlite cytotoxicity assay; format: cell-based
# [3] = aqueous kinetic solubility; format: physicochemical; details: phosphate buffer (pH 7.4)
Molecule,PAMPA permeability (PAMPA permeability),further results
"Cc1oc(-c2ccc(Cl)c(Cl)c2)nc1CN1CCC(C(=O)NCCCN2C[C@H](C)C[C@H](C)C2)CC1 [7ii, N-(3-(cis-3,5-Dimethylpiperidin-1-yl)propyl)-1-((2-(3,4-dichlorophenyl)-5-methyloxazol-4-yl)methyl)piperidine-4-carboxamide]",522 1×10^−6 cm/s,liver concentration throughout 24 h post-administration [1]: 3.33 to 9.82 µM; hepatotoxicity indicated by ALT level [2]: without obvious hepatotoxicity; cytotoxicity in combination (ATPlite) (Huh7.5.1 cells): without significant cytotoxicity
"Cc1cccc(C)c1-c1nc(CN2CCC(C(=O)NCCCN3C[C@H](C)C[C@H](C)C3)CC2)c(C)o1 [7w, N-(3-(cis-3,5-Dimethylpiperidin-1-yl)propyl)-1-((2-(2,6-dimethylphenyl)-5-methyloxazol-4-yl)methyl)piperidine-4-carboxamide]",253.9 1×10^−6 cm/s,
"Cc1ccc(-c2nc(CN3CCC(C(=O)NCCCN4C[C@H](C)C[C@H](C)C4)CC3)c(C)o2)cc1C [7x, N-(3-(cis-3,5-Dimethylpiperidin-1-yl)propyl)-1-((2-(3,4-dimethylphenyl)-5-methyloxazol-4-yl)methyl)piperidine-4-carboxamide]",219.4 1×10^−6 cm/s,
"Cc1ccc(-c2nc(CN3CCC(C(=O)NCCCN4C[C@H](C)C[C@H](C)C4)CC3)c(C)o2)c(C)c1 [7y, N-(3-(cis-3,5-Dimethylpiperidin-1-yl)propyl)-1-((2-(2,4-dimethylphenyl)-5-methyloxazol-4-yl)methyl)piperidine-4-carboxamide]",353.1 1×10^−6 cm/s,
COc1ccc(-c2nc(CN3CCC(C(=O)NCCCN4C[C@H](C)C[C@H](C)C4)CC3)c(C)o2)cc1OC [7yy],81.9 1×10^−6 cm/s,
"Cc1cc(C)cc(-c2nc(CN3CCC(C(=O)NCCCN4C[C@H](C)C[C@H](C)C4)CC3)c(C)o2)c1 [7z, N-(3-(cis-3,5-Dimethylpiperidin-1-yl)propyl)-1-((2-(3,5-dimethylphenyl)-5-methyloxazol-4-yl)methyl)piperidine-4-carboxamide]",864 1×10^−6 cm/s,
"CCN(CC)CCCCNC(=O)C1CCN(Cc2nc(-c3ccc(OC)c(OC)c3)oc2C)CC1 [7zz, N-(4-(Diethylamino)butyl)-1-((2-(3,4-dimethoxyphenyl)-5-methyloxazol-4-yl)methyl)piperidine-4-carboxamide]",10.4 1×10^−6 cm/s,
"Cc1cc(-c2nc(CN3CCC(C(=O)NCCCN4C[C@H](C)C[C@H](C)C4)CC3)co2)ccc1F [18a, N-(3-(cis-3,5-Dimethylpiperidin-1-yl)propyl)-1-((2-(4-fluoro-3-methylphenyl)oxazol-4-yl)methyl)piperidine-4-carboxamide]",215.4 1×10^−6 cm/s,
"Cc1cc(-c2nc(CN3CCC(C(=O)NCCCN4CCC(C(C)C)CC4)CC3)co2)ccc1F [18b, 1-((2-(4-Fluoro-3-methylphenyl)oxazol-4-yl)methyl)-N-(3-(4-isopropylpiperidin-1-yl)propyl)piperidine-4-carboxamide]",276.4 1×10^−6 cm/s,
"N-(3-(cis-3,5-Dimethylpiperidin-1-yl)propyl)-1-((2-(2-chloro-6-methoxyphenyl)-5-methyloxazol-4-yl)methyl)piperidine-4-carboxamide [7ww]",,aqueous solubility [3]: >73.0 µg/mL; PAMPA permeability (PAMPA permeability; PAMPA): 197.7 1×10^−6 cm/s
